The source of these data is US5360796A, “Imidazo[1,2-a]pyridinylalkyl phosphonic acid compounds for treatment of neurotoxic injury” (G. D. Searle & Co., priority 1991, dated 1994).

The subject of assay [1] is cGMP in cerebellum. Description: Assay for Effect on cGMP Levels in Cerebellum. It is filed as in vivo, mouse (Swiss-Webster). Particulars: Mus musculus, sc, 0.5 h; 30 min prior to sacrifice; read-out: Decrease in cGMP ED50. Here is the method: The purpose of this assay is to determine the extent of in vivo bioavailability and the potency as an NMDA antagonist of compound of the invention as compared to known NMDA antagonists, namely, 3(2-carboxypiperizine-4-yl)propyl-1-phosphonic acid (CPP) and cis-4-phosphonomethyl-2-piperidinecarboxylic acid (CGS 19755). Male Swiss-Webster mice (17-24 g were injected sub-cutaneously (s.c.) with compound of the invention and the known NMDA antagonist standards 30 minutes prior to sacrifice by focussed microwave irradiation. Groups consisted of 7-10 mice. Compounds of Ex. #7 was dissolved in isotonic saline and all compounds were administered in a volume of 0.2 ml per mouse. Cerebella samples were extracted in IN HCl. Hydrochloric acid in extracts of the cerebellum were freeze-dried for assay of cGMP with a commercial RIA kit (NEN). Statistics (Dunett's t-test) were performed as described previously [P. L. Wood et al., Neurochem., 19, 975-982 (1980)]. ED50 values were calculated from log-logit transformation of the dose-response data.

In assay [2] the test system is NMDA. Particulars: D. E. Murphy et al, J. Pharmacol. Exp. Ther. 1987; cited from earlier work.
Assay [3] has as its target AMPA. The experiment in a line: [3H]AMPA (QUIS) binding assay. Also on record: species or system rat. Particulars: 10 nM [3H]AMPA, 100 mM KSCN, synaptic plasma membranes, pH 7.4, 0-4° C., 10 min; read-out: NMDA Receptor Binding Data, Ki IC50 Binding AMPA. Here is the method: (§1) Synaptic plasma membranes (SPM) were prepared as previously described [Monahah, J. B. and Michel, J., "Identification and Characterization of an N-methyl-D-aspartate-specific L[^3 H]glutamate Recognition Site in Synaptic Plasma Membranes, J. Neurochem., 48, 1699-1708 (1987)]. The SPM were stored at a concentration of 10-15 mg/ml in 0.32M sucrose, 0.5 mM EDTA, 1 mM MgSO4, 5 mM Tris/SO4, pH 7.4, under liquid nitrogen. The identity and purity of the subcellular fractions were confirmed by both electron microscopy and marker enzymes. Protein concentrations were determined by using a modification of the method of Lowry [Ohnishi, S. T. and Barr, J. K., "A Simplified Method of Quantitating Proteins using the Biuret and Phenol Reagents", Anal. Biochem., 86, 193-197 (1978)]. The SPM were treated identically for the [^3 H]AMPA (QUIS), [^3 H]kainate and sodium-dependent L-[^3 H]-glumatate binding assays. The SPM were thawed at room temperature, diluted twenty-fold with 50mM Tris/acetate, pH 7.4, incubated at 37° C. for 30 minutes, and centrifuged at 100,000 g for 15 minutes. The dilution, incubation, and centrifugation was repeated a total of three times. Prior to use in the NMDA-specific L-[^3 H]-glutamate binding assay the SPM were thawed, diluted twenty fold with 50 mM Tris/acetate, pH 7.4 containing 0.04% (v/v) Triton X-100, incubated for 30 minutes at 37° C. and centrifuged as described above. The Triton X-100 treated membranes were washed with 50 mM Tris/acetate, pH 7.4 and centrifuged at 100,000 g for 15 minutes a total of four times. […] The basic procedure for the receptor subclass binding assays was similar. This general method involved adding the radioligand (12.5 nM L-[^3 H] glutamate; 0.5 nM [^3 H]kainate or 10 nM [^3 H]AMPA) to the appropriate concentration of the test compound and initiating the assay by the addition of ice cold synaptic plasma membranes (0.2-0.45 mg). The binding assays were performed in 1.5 mL centrifuge tubes with the total volume adjusted to 1.0 mL. Additions of test compounds were made in 50 mM Tris/acetate, pH 7.4 and incubations were carried out at 0°-4° C. The incubation time for the NMDA and the AMPA binding assays was 10 minutes, for the kainate binding assay 60 minutes and for the sodium-dependent glutamate binding assay 15 minutes. The AMPA binding assay contained 100 mM KSCN and the sodium-dependent glutamate binding assay contained 150 mM sodium acetate in addition to the previously described reagents. To terminate the incubation, the samples were centrifuged for 15 minutes at 12,000 g and 4° C. in a Beckman Microfuge 12. The supernatant was aspirated and the pelleted membranes dissolved in Beckman BTS-450 tissue solubilizer for a minimum of 6 hours at room temperature. Beckman MP scintillation cocktail containing 7 mL/1 acetic acid was then added and the samples counted on a Beckman LS 5800 or 3801 liquid scintillation counter with automatic corrections for quenching and counting efficiency. Nonspecific binding was defined as the residual binding in the presence of either excess L-glutamate (0.1-0.4 mM), kainate (0.01 mM), or NMDA (0.5 mM), and was 15-25% of the total binding in the NMDA binding assay, 19-27% in the AMPA binding assay, 20-30% in the kainate binding assay and 10-15% in the sodium-dependent binding assay. Radioligand binding to the synaptic plasma membranes was analyzed using Scatchard and Hill transformations and the Ki values of the compounds determined using logit-log transformations. Calculations and regression analysis were performed using templates developed for Lotus 1, 2, 3 as previously described [Pullan, L. M. "Automated Radioligand Receptor Binding Analysis with Templates for Lotus", Computer Appln. Biosci., 3, 131 (1987)]. Binding results are reported in Table I for example compounds of the invention.

The target in assay [4] is NMDA receptor. The experiment in a line: NMDA-Selective Glutamate Binding Assay (L-[3H]glutamate). The arrangement: species or system rat. The note with it: 12.5 nM L-[3H]glutamate, synaptic plasma membranes, read-out: NMDA Receptor Binding Data, Ki IC50 Binding NMDA. As to the method: as §1
The target in assay [5] is TCP (1-[1-(2-thienyl)cyclohexyl]piperidine) binding. Description: TCP Modulation Assay. The arrangement: species or system rat. The note with it: for Ki: 2 nM tritiated TCP, 0.05 mM L-glutamate, rat brain SPM, read-out: TCP Ki IC50. As to the method: The effect on the TCP (1-[1-(2-thienyl)cyclohexyl]piperidine) binding was measured in rat brain synaptic membranes (SPM) prepared as previously described [J. B. Monahah & J. Michel; J. Neurochem. […] Prior to their use in the binding assay, frozen SPM were thawed, diluted twenty fold with 50 mM Tris/acetate (pH 7.4 containing 0.04% (v/v) Triton X-100), incubated for 30 min. at 37° C. and centrifuged at 95,000 xg for 15 min. The Triton X-100 treated SPM were washed with 5 mM Tris/HCl, pH 7.4 and centrifuged a total of six times. […] The samples were filtered through glass fiber filters (Schleicher & Schuell #32) which have been pretreated with 0.05% (v/v) polyethylenimine, washed 4 times with 2 ml of ice-cold 5 mM Tris/HCl buffer, and then counted on a Beckman LS 5800 liquid scintillation counter with automatic corrections for quenching and counting efficiency. Inhibition of TCP binding was measured as a decrease in the binding in the presence of 0.05 mM L-glutamate. Non-specific binding was defined as the residual binding in the presence of […] phencyclidine.

The structures appear in SMILES notation. Counter-ions that a name gives are not always drawn. Like-named read-outs stand apart in the source and are kept apart here.

The term ED50 denotes the dose at which the effect has come halfway, by size or by number of responders. As to `O=C(O)[C@H]1C[C@@H](CP(=O)(O)O)CCN1` (relative stereo) [CGS 19755, cis-4-phosphonomethyl-2-piperidinecarboxylic acid, reference compound], the ED50 in assay [1] worked out at 1 mg/kg.
For `O=C(O)C1CN(CCCP(=O)(O)O)CCN1` (stereo not drawn) [CPP, 3-(2-carboxypiperazin-4-yl)propyl-1-phosphonic acid, reference compound], the “NMDA antagonism (in words)” value in assay [2] is “potent and selective NMDA antagonist”. In addition, the ED50 in assay [1] worked out at 7.4 mg/kg.
Usually Ki stands for a dissociation constant, usually derived from enzyme kinetics or from competition with a known ligand. Consider `O=C(O)c1cn2cc(CP(=O)(O)O)ccc2n1` [Example 13, 6-(phosphonomethyl)imidazo[1,2-a]pyridine-2-carboxylic acid], for which the Ki is greater than 300 µM in assay [3] and greater than 100 µM in assay [4] (pH 7.4, 0-4° C., 10 min).
Taken in the same sequence, the figures for `O=C(O)c1cn2ccc(CP(=O)(O)O)cc2n1` [Example 18, 7-(phosphonomethyl)imidazo[1,2-a]pyridine-2-carboxylic acid] were greater than 300 µM and greater than 100 µM.
With `O=C(O)c1cn2cccc(CP(=O)(O)O)c2n1` [Example 23, 8-(phosphonomethyl)imidazo[1,2-a]pyridine-2-carboxylic acid], the Ki was 14 µM in assay [5] (pH 7.4, 25° C., 60 min); 7.7 µM in assay [5] (second batch); greater than 300 µM in assay [3]; 4.5 µM in assay [4] (pH 7.4, 0-4° C., 10 min); 10.5 µM in assay [4] (Second batch).
As for `O=C(O)c1cn2c(CP(=O)(O)O)c(Cl)ccc2n1` [Example 30, 6-chloro-5-(phosphonomethyl)imidazo[1,2-a]pyridine-2-carboxylic acid], the Ki in assay [3] was greater than 300 µM; in assay [4] (pH 7.4, 0-4° C., 10 min), greater than 100 µM.
Consider `Cc1ccc(P(=O)(O)O)c2nc(C(=O)O)cn12` [Example 49, 5-methyl-8-phosphonoimidazo[1,2-a]pyridine-2-carboxylic acid], for which the inhibition constant (Ki) in assay [4] (pH 7.4, 0-4° C., 10 min) was greater than 10 µM.
The same measure, in the same setting: as for `O=C(O)c1cn2c(P(=O)(O)O)cccc2n1` [Example 53, 5-phosphonoimidazo[1,2-a]pyridine-2-carboxylic acid], the figure is greater than 10 µM.
For `O=C(O)c1cn2c(C(O)P(=O)(O)O)cccc2n1` (stereo not drawn) [Example 57, 5-(hydroxyphosphonomethyl)imidazo[1,2-a]pyridine-2-carboxylic acid, monohydrochloride], the “TCP Binding Data (result in words)” value in assay [5] (no number given) is given as “Antag”. Also, the Ki is greater than 300 µM in assay [3] and 5.8 µM in assay [4] (pH 7.4, 0-4° C., 10 min).
Regarding `Cc1c(C(=O)O)nc2c(CP(=O)(O)O)cccn12` [Example 67, 3-methyl-8-(phosphonomethyl)imidazo[1,2-a]pyridine-2-carboxylic acid, monohydrochloride], the Ki was greater than 300 µM in assay [3] and greater than 100 µM in assay [4] (pH 7.4, 0-4° C., 10 min).
